Measured values: US9149040B2, “Synergistic pesticidal compositions and related methods” (Dow AgroSciences LLC, priority 2013, dated 2015)

System: diamondback moth, Plutella xylostella
Assay: Diamondback moth bioassay on track-sprayed cabbage plants/leaf discs, percent control
Type: in vivo
Description: Three second-instar diamondback moth, Plutella xylostella, were infested onto each leaf disc. […] The “Colby's Expected Action” was calculated using Colby's equation as discussed previously.

| SMILES | % Control Three Days After Treatment (flonicamid alone, dose rate 0.000039 weight %) [%] | % Control Three Days After Treatment (flonicamid alone, dose rate 0.000156 weight %) [%] | % Control Three Days After Treatment (compound I alone, dose rate 0.000625 weight %) [%] | % Control Three Days After Treatment (compound I alone, dose rate 0.000625 weight %, listed as compound I) | % Control Three Days After Treatment (compound I alone, dose rate 0.0025 weight %, second-instar larvae, 400 L/Ha spray) |
| --- | --- | --- | --- | --- | --- |
| N#CCNC(=O)c1cnccc1C(F)(F)F [Flonicamid, N-(cyanomethyl)-4-(trifluoromethyl)-3-pyridinecarboxamide, reference compound] | 4.17 | 4.17 | – | – | – |
| CCN(C(=O)CCSCCC(F)(F)F)c1cn(-c2cccnc2)nc1Cl [Compound I, N-(3-chloro-1-(pyridin-3-yl)-1H-pyrazol-4-yl)-N-ethyl-3-((3,3,3-trifluoropropyl)thio)propanamide] | – | – | 0 | no control | no control |
